Earlier results as cited in patent US20260031189A1, “METHOD AND SYSTEMS FOR PREDICTION OF HLA CLASS II-SPECIFIC EPITOPES AND CHARACTERIZATION OF CD4+ T CELLS” (BioNTech US Inc., priority 2022, published 2026).

Conditions: with NYESO-1 peptide vaccine and Montanide; ovarian carcinoma; cited from earlier work

For poly-ICLC, the “patients with induction of CD4+ and CD8+ T cell and antibody responses to the peptide” value is listed as > 90%.
